Test results as given in ChEMBL document CHEMBL5385972, “New azole derivatives linked to indole/indoline moieties combined with FLC against drug-resistant Candida albicans” (2024).
≈ marks a conversion by molar mass, not a printed value. Calls of active or inactive are those of the source. The rule behind the calls is not given here.

Legend:
[1] = tested on: Candida albicans; test: Antifungal activity against Candida albicans SC5314 assessed as inhibition of fungal growth incubated for 24 hrs by microdilution assay; format: functional
[2] = tested on: Candida albicans; test: Synergistic antifungal activity against FLC-resistant Candida albicans SC5314 assessed as fractional inhibitory concentration index incubated for 24 hrs in presence of fluconazole by microdilution assay; format: functional
[3] = tested on: Candida albicans; test: Synergistic antifungal activity against FLC-resistant Candida albicans SC5314 assessed as inhibition of fungal growth incubated for 24 hrs in presence of fluconazole by microdilution assay; format: functional
[4] = tested on: Candida albicans; test: Synergistic antifungal activity against Candida albicans SC5314 assessed as fractional inhibitory concentration index incubated for 24 hrs in presence of fluconazole by microdilution assay; format: functional
[5] = tested on: Candida albicans; test: Synergistic antifungal activity against Candida albicans SC5314 assessed as inhibition of fungal growth incubated for 24 hrs in presence of fluconazole by microdilution assay; format: functional
[6] = tested on: Cell membrane; test: Induction of […] membrane permeabilization in Candida albicans SC5314 by measuring red fluorescence at 3 ug/ml incubated for 16 to 24 hrs by propyl iodide dye based fluorescence microscopic analysis; format: subcellular; conditions: dose 3.0 µg/ml, time 16-24 hrs
[7] = tested on: Candida albicans; test: Antifungal activity against FLC-resistant Candida albicans SC5314 assessed as inhibition of fungal growth at 3 ug/ml incubated for 48 hrs by time-kill assay; format: functional, organism-based; conditions: dose 3.0 µg/ml
[8] = tested on: Candida albicans; test: Antifungal activity against FLC-resistant Candida albicans SC5314 assessed as inhibition of fungal growth incubated for 24 hrs by microdilution assay; format: functional
[9] = tested on: Candida albicans; test: Antifungal activity against Candida albicans SC5314 assessed as morphological change at 3 ug/ml incubated for 24 hrs by transmission electron microscopic analysis; format: functional, organism-based; conditions: dose 3.0 µg/ml
[10] = tested on: Candida albicans; test: Inhibition of mitochondrial function in Candida albicans SC5314 assessed as reduction in ATP production at 3 ug/ml incubated for 16 hrs by chemiluminescence assay; format: functional; conditions: dose 3.0 µg/ml
[11] = tested on: Cell membrane; test: Induction of […] membrane permeabilization in Candida albicans SC5314 by measuring red fluorescence at 3 to 9 ug/ml incubated for 16 to 24 hrs by propyl iodide dye based fluorescence microscopic analysis; format: subcellular; conditions: dose 3-9 µg/ml, time 16-24 hrs
[12] = tested on: Candida albicans; test: Synergistic antifungal activity against Candida albicans SC5314 assessed as decrease in intracellular mitochondrial membrane potential incubated for 16 hrs in presence of fluconazole by JC-1 staining based fluorescence assay; format: functional, organism-based
[13] = tested on: Candida albicans; test: Antifungal activity against Candida albicans SC5314 assessed as decrease in mycelial growth at 3 to 9 ug/ml incubated for 24 hrs by crystal violet staining based inverted microscopic analysis; format: functional, organism-based; conditions: dose 3-9 µg/ml
[14] = tested on: Candida albicans; test: Antifungal activity against Candida albicans SC5314 assessed as morphological change at 3 to 9 ug/ml incubated for 24 hrs by transmission electron microscopic analysis; format: functional, organism-based; conditions: dose 3-9 µg/ml
[15] = tested on: Candida albicans; test: Synergistic antifungal activity against Candida albicans SC5314 assessed as reduction in ATP production incubated for 16 hrs in presence of fluconazole by chemiluminescence assay; format: functional, organism-based
[16] = tested on: Candida albicans; test: Synergistic antifungal activity against Candida albicans SC5314 assessed as leakage of intracellular debris incubated for 24 hrs in presence of fluconazole by transmission electron microscopic analysis; format: functional, organism-based
[17] = tested on: Candida albicans; test: Synergistic antifungal activity against Candida albicans SC5314 assessed as appearance of incomplete cell wall structure incubated for 24 hrs in presence of fluconazole by transmission electron microscopic analysis; format: functional, organism-based
[18] = tested on: Candida albicans; test: Synergistic antifungal activity against FLC-resistant Candida albicans SC5314 assessed as inhibition of fungal growth incubated for 48 hrs in presence of fluconazole by time-kill assay; format: functional, organism-based
[19] = tested on: Candida albicans; test: Antifungal activity against FLC-resistant Candida albicans SC5314 assessed as inhibition of fungal growth at 3 to 9 ug/ml incubated for 48 hrs by time-kill assay; format: functional, organism-based; conditions: dose 3-9 µg/ml
[20] = tested on: Cell membrane; test: Induction of […] membrane permeabilization in Candida albicans SC5314 by measuring red fluorescence incubated for 16 to 24 hrs in presence of fluconazole by propyl iodide dye based fluorescence microscopic analysis; format: subcellular; conditions: time 16-24 hrs
[21] = tested on: Candida albicans; test: Synergistic antifungal activity against Candida albicans SC5314 assessed as increase in intracellular ROS production incubated for 16 hrs in presence of fluconazole by DCFH-DA staining based ELISA; format: functional, organism-based
[22] = tested on: Candida albicans; test: Antifungal activity against Candida albicans SC5314 assessed as inhibition of fungal growth at 3 to 9 ug/ml incubated for 24 hrs by crystal violet staining based inverted microscopic analysis; format: functional, organism-based; conditions: dose 3-9 µg/ml
[23] = tested on: Cell membrane; test: Induction of […] membrane permeabilization in Candida albicans SC5314 by measuring red fluorescence incubated for 16 to 24 hrs in presence of fluconazole by propyl iodide dye based multifunctional microplate reader analysis; format: subcellular; conditions: time 16-24 hrs
[24] = tested on: Candida albicans; test: Inhibition of mitochondrial function in Candida albicans SC5314 assessed as reduction in ATP production at 3 to 9 ug/ml incubated for 16 hrs by chemiluminescence assay; format: functional; conditions: dose 3-9 µg/ml

| SMILES | MIC50 [1] [µg/mL] | fractional inhibitory concentration index (FICI) [2] | MIC50 [3] [µg/mL] | fractional inhibitory concentration index (FICI) [4] | MIC50 [5] [µg/mL] | further results |
| --- | --- | --- | --- | --- | --- | --- |
| O=C(CCN1CCc2ccc(Br)cc21)NCCNCC(O)COC(Cn1cncn1)c1ccc(F)cc1F (stereo not given) | > 200 | 0.04 | 8.92 | 0.44 | 0.6 |  |
| O=C(CCN1CCc2ccc(F)cc21)NCCNCC(O)COC(Cn1cncn1)c1ccc(F)cc1F (stereo not given) | > 200 | 0.09 | 18.9 | 1.99 | 2.68 |  |
| O=C(CCn1ccc2ccccc21)NCCNCC(O)COC(Cn1cncn1)c1ccc(F)cc1F (stereo not given) | > 200 | 0.25 | 50 | 6.26 | 8.42 |  |
| O=C(CCn1ccc2cc(Cl)ccc21)NCCNCC(O)COC(Cn1cncn1)c1ccc(F)cc1F (stereo not given) | > 200 | 0.09 | 18.9 | 0.62 | 0.83 |  |
| OC(Cn1cncn1)(Cn1cncn1)c1ccc(F)cc1F [FLUCONAZOLE] | 1.35 (≈ 4.41 µM) |  |  |  |  | Activity [6]: Active; Activity [7]: Active; MIC50 [8]: > 200 µg/mL; Activity [9]: Active; Activity [10]: inactive |
| O=C(CCn1ccc2ccc(Cl)cc21)NCCNCC(O)COC(Cn1cncn1)c1ccc(F)cc1F (stereo not given) | > 200 | 0.1 | 20 | 0.66 | 0.89 |  |
| COc1ccc2c(c1)N(CCC(=O)NCCNCC(O)COC(Cn1cncn1)c1ccc(F)cc1F)CC2 (stereo not given) | > 200 | 0.56 | 111 | 8.64 | 11.6 |  |
| COc1ccc2ccn(CCC(=O)NCCNCC(O)COC(Cn3cncn3)c3ccc(F)cc3F)c2c1 (stereo not given) | > 200 | 0.26 | 52.5 | 1.39 | 1.87 |  |
| O=C(CCn1ccc2cc(Br)ccc21)NCCNCC(O)COC(Cn1cncn1)c1ccc(F)cc1F (stereo not given) | > 200 | 0.06 | 12.9 | 0.63 | 0.85 |  |
| O=C(CCn1ccc2ccc(F)cc21)NCCNCC(O)COC(Cn1cncn1)c1ccc(F)cc1F (stereo not given) | > 200 | 0.17 | 33.9 | 0.59 | 0.79 |  |
| CC1Cc2ccccc2N1CCC(=O)NCCNCC(O)COC(Cn1cncn1)c1ccc(F)cc1F (stereo not given) | > 200 | 0.34 | 67.7 | 6.85 | 9.22 |  |
| O=C(CCn1ccc2ccc(Br)cc21)NCCNCC(O)COC(Cn1cncn1)c1ccc(F)cc1F (stereo not given) | > 200 | 0.06 | 11.5 | 0.71 | 0.95 |  |
| O=C(CCN1CCc2ccccc21)NCCNCC(O)COC(Cn1cncn1)c1ccc(F)cc1F (stereo not given) | > 200 | 0.21 | 42.6 | 4.34 | 5.84 |  |
| O=C(CCN1CCc2ccc(Cl)cc21)NCCNCC(O)COC(Cn1cncn1)c1ccc(F)cc1F (stereo not given) | > 200 | 0.05 | 9.22 | 0.26 | 0.35 |  |
| O=C(CCN1CCc2cc(Cl)ccc21)NCCNCC(O)COC(Cn1cncn1)c1ccc(F)cc1F (stereo not given) | > 200 | 0.07 | 14 | 1.31 | 1.77 |  |
| O=C(CCN1CCc2cc(Br)ccc21)NCCNCC(O)COC(Cn1cncn1)c1ccc(F)cc1F (stereo not given) | > 200 | 0.01 | 2.82 | 0.85 | 1.14 | Activity [11]: inactive; Activity [12]: Dose-Dependent Effect; Activity [13]: inactive; Activity [14]: inactive; Activity [15]: Dose-Dependent Effect; Activity [16]: Dose-Dependent Effect; Activity [17]: Dose-Dependent Effect; Activity [18]: Dose-Dependent Effect; Activity [19]: inactive; Activity [20]: Dose-Dependent Effect; Activity [21]: Dose-Dependent Effect; Activity [22]: inactive; Activity [23]: Dose-Dependent Effect; Activity [24]: inactive |
| Cc1ccc2c(c1)CCN2CCC(=O)NCCNCC(O)COC(Cn1cncn1)c1ccc(F)cc1F (stereo not given) | > 200 | 0.05 | 10.2 | 1.51 | 2.03 |  |
